Experimental data as given in EPA's CvTdb concentration-time database.

Legend:
[1] = test system: Rat; assay: concentration in plasma after dosing; details: 10 min; dosed: 2,4-Dichlorophenoxyacetic acid; 2.0 mg/kg; iv; Male; Sprague-Dawley
[2] = test system: Mouse; assay: concentration in plasma after dosing; details: dosed: 2,4-Dichlorophenoxyacetic acid, 1.0 mg/kg, iv, Male, B6C3F1
[3] = test system: Mouse; assay: concentration in plasma after dosing; details: dosed: 2,4-Dichlorophenoxyacetic acid, 2.0 mg/kg, oral, Male, B6C3F1
[4] = test system: Mouse; assay: concentration in plasma after dosing; details: dosed: 2,4-Dichlorophenoxyacetic acid, 5.2 mg/kg, oral, Male, B6C3F1
[5] = test system: Rat; assay: concentration in plasma after dosing; details: dosed: 2-Hydroxy-4-methoxybenzophenone, 500 mg/kg, oral, Female, F344
[6] = test system: Mouse; assay: concentration in plasma after dosing; details: 0.25 h; dosed: 2-Hydroxy-4-methoxybenzophenone; 500 mg/kg; oral; Male; B6C3F1
[7] = test system: Mouse; assay: concentration in plasma after dosing; details: 10 min; dosed: 2-Hydroxy-4-methoxybenzophenone; 500 mg/kg; oral; Female; B6C3F1
[8] = test system: Mouse; assay: concentration in plasma after dosing; details: 2 h; dosed: 2-Hydroxy-4-methoxybenzophenone; 500 mg/kg; oral; Male; B6C3F1
[9] = test system: Mouse; assay: concentration in plasma after dosing; details: 2 h; dosed: 2-Hydroxy-4-methoxybenzophenone; 50 mg/kg; iv; Female; B6C3F1
[10] = test system: Mouse; assay: concentration in plasma after dosing; details: 3 h; dosed: 2-Hydroxy-4-methoxybenzophenone; 250 mg/kg; oral; Female; B6C3F1
[11] = test system: rat; assay: amount in urine after dosing (umol); details: inhalation, duration: 4 hr, F344 (Harlan Winkelmann)
[12] = test system: Rat; assay: concentration in plasma after dosing; details: dosed: Methyleugenol, 37 mg/kg, oral, Male, F344/N
[13] = test system: Rat; assay: concentration in plasma after dosing; details: dosed: Methyleugenol, 37 mg/kg, iv, Male, F344
[14] = test system: Rat; assay: concentration in liver after dosing; details: 24 h; dosed: Perfluorohexane-1-sulphonic acid – potassium salt; 16 mg/kg; oral; Female; Harlan Sprague Dawley
[15] = test system: Rat; assay: concentration in kidney after dosing; details: 6 h; dosed: Perfluorohexane-1-sulphonic acid – potassium salt; 16 mg/kg; oral; Female; F344
[16] = test system: Rat; assay: concentration in liver after dosing; details: 192 h; dosed: Perfluorohexane-1-sulphonic acid – potassium salt; 16 mg/kg; oral; Female; Harlan Sprague Dawley
[17] = test system: Rat; assay: concentration in plasma after dosing; details: 3 h; dosed: Primidone; 80 mg/kg; oral; Female; F344
[18] = test system: Rat; assay: concentration in plasma after dosing; details: 9 h; dosed: Primidone; 30 mg/kg; oral; Female; F344
[19] = test system: Rat; assay: concentration in plasma after dosing; details: 0.5 h; dosed: Primidone; 130 mg/kg; oral; Female; F344
[20] = test system: Rat; assay: concentration in plasma after dosing; details: dosed: Pyridine, 25 mg/kg, oral, Male, F344
[21] = test system: Rat; assay: concentration in plasma after dosing; details: 2 min; dosed: Pyridine; 10 mg/kg; iv; Male; F344
[22] = test system: Rat; assay: concentration in plasma after dosing; details: 2 min; dosed: Pyridine; 10 mg/kg; oral; Male; F344
[23] = test system: Rat; assay: concentration in plasma after dosing; details: dosed: Pyridine, 25 mg/kg, oral, Female, Harlan Sprague-Dawley
[24] = test system: Rat; assay: concentration in plasma after dosing; details: 2 min; dosed: Pyridine; 10 mg/kg; iv; Male; F344; remark: listed apart in the source
[25] = test system: Rat; assay: concentration in plasma after dosing; details: 20 min; dosed: Pyridine; 10 mg/kg; oral; Female; Harlan Sprague-Dawley
[26] = test system: Rat; assay: concentration in brain after dosing; details: 6 h; dosed: alpha-Thujone; 25 mg/kg; oral; Male; Harlan Sprague Dawley
[27] = test system: Rat; assay: concentration in plasma after dosing; details: 5 min; dosed: alpha-Thujone; 50 mg/kg; oral; Female; Harlan Sprague Dawley
[28] = test system: Rat; assay: concentration in brain after dosing; details: 2 min; dosed: alpha-Thujone; 25 mg/kg; oral; Male; Harlan Sprague Dawley
[29] = test system: Rat; assay: concentration in plasma after dosing; details: 6 h; dosed: alpha-Thujone; 25 mg/kg; oral; Male; Harlan Sprague Dawley
[30] = test system: Rat; assay: concentration in plasma after dosing; details: 10 min; dosed: alpha-Thujone; 25 mg/kg; oral; Male; Harlan Sprague Dawley
[31] = test system: Rat; assay: concentration in plasma after dosing; details: 12 h; dosed: alpha-Thujone; 50 mg/kg; oral; Female; Harlan Sprague Dawley

`O=C(O)COc1ccc(Cl)cc1Cl` [2,4-Dichlorophenoxyacetic acid] was tested, and the concentration in plasma [1] was 13200 ng/mL, the concentration in plasma ([2]; 2.5 min) was 8150 ng/mL and the concentration in plasma ([2]; 10 min) was 8340 ng/mL. For the same compound, the concentration in plasma ([2]; 0.5 h) was 6070 ng/mL, the concentration in plasma ([2]; 3 h) was 446 ng/mL and the concentration in plasma ([3]; 2.5 min) was 6530 ng/mL. It also gave a concentration in plasma ([3]; 5 min) of 7270 ng/mL, a concentration in plasma ([3]; 10 min) of 7510 ng/mL and a concentration in plasma ([3]; 0.25 h) of 6770 ng/mL. It also gave a concentration in plasma ([3]; 0.5 h) of 6600 ng/mL, a concentration in plasma ([3]; 2 h) of 2620 ng/mL and a concentration in plasma ([3]; 3 h) of 483 ng/mL. The concentration in plasma ([4]; 5 min) was 6510 ng/mL, the concentration in plasma ([4]; 0.25 h) was 12300 ng/mL and the concentration in plasma ([4]; 0.5 h) was 19700 ng/mL. For the same compound, the concentration in plasma ([4]; 2 h) was 9630 ng/mL, the concentration in plasma ([4]; 3 h) was 13400 ng/mL and the concentration in plasma ([4]; 4 h) was 13300 ng/mL. The concentration in plasma ([4]; 6 h) was 4310 ng/mL.

For `O=C(c1ccccc1)c1ccc(O)cc1O` [2,4-Dihydroxybenzophenone], the concentration in plasma ([5]; 0.5 h) was 675 ng/mL, the concentration in plasma ([5]; 12 h) was 221 ng/mL and the concentration in plasma [6] was 2740 ng/mL. For the same compound, the concentration in plasma [7] was 4250 ng/mL, the concentration in plasma [8] was 318 ng/mL and the concentration in plasma [9] was 46.1 ng/mL. For the same compound, the concentration in plasma [10] was 133 ng/mL.

`CC(C)(O)CO` [2-methyl-1,2-propanediol] gave an amount in urine ([11]; 5.902 h, dosed: ethyl tert-butyl ether, 4.5 ppm) of 0.0942, an amount in urine ([11]; 5.941 h, dosed: methyl tert-butyl ether, 38.7 ppm) of 1.91 and an amount in urine ([11]; 5.99 h, dosed: ethyl tert-butyl ether, 40.6 ppm) of 0.962. The amount in urine ([11]; 11.87 h, dosed: ethyl tert-butyl ether, 4.5 ppm) was 0.122, the amount in urine ([11]; 11.94 h, dosed: methyl tert-butyl ether, 38.7 ppm) was 1.17 and the amount in urine ([11]; 11.96 h, dosed: ethyl tert-butyl ether, 40.6 ppm) was 0.855. For the same compound, the amount in urine ([11]; 11.97 h, dosed: methyl tert-butyl ether, 4.5 ppm) was 0.56, the amount in urine ([11]; 17.81 h, dosed: ethyl tert-butyl ether, 4.5 ppm) was 0.0535 and the amount in urine ([11]; 17.95 h, dosed: methyl tert-butyl ether, 38.7 ppm) was 0.268. It also gave an amount in urine ([11]; 18.01 h, dosed: ethyl tert-butyl ether, 40.6 ppm) of 0.254, an amount in urine ([11]; 18.01 h, dosed: methyl tert-butyl ether, 4.5 ppm) of 0.155 and an amount in urine ([11]; 23.76 h, dosed: ethyl tert-butyl ether, 4.5 ppm) of 0.0171. It also gave an amount in urine ([11]; 23.93 h, dosed: methyl tert-butyl ether, 38.7 ppm) of 0.126, an amount in urine ([11]; 23.95 h, dosed: methyl tert-butyl ether, 4.5 ppm) of 0.0371 and an amount in urine ([11]; 23.96 h, dosed: ethyl tert-butyl ether, 40.6 ppm) of 0.0668. The amount in urine ([11]; 29.72 h, dosed: ethyl tert-butyl ether, 4.5 ppm) was 0.015, the amount in urine ([11]; 29.91 h, dosed: methyl tert-butyl ether, 38.7 ppm) was 0.0631 and the amount in urine ([11]; 29.93 h, dosed: ethyl tert-butyl ether, 40.6 ppm) was 0.0668. The amount in urine ([11]; 29.96 h, dosed: methyl tert-butyl ether, 4.5 ppm) was 0.023.

`C=CCc1ccc(OC)c(OC)c1` [Methyleugenol] showed a concentration in plasma ([12]; 2 min) of 36 ng/mL, a concentration in plasma ([12]; 3 h) of 46.1 ng/mL and a concentration in plasma ([13]; 0.5 h) of 4010 ng/mL. The concentration in plasma ([13]; 0.75 h) was 2000 ng/mL.

Work on `O=S(=O)([O-])C(F)(F)C(F)(F)C(F)(F)C(F)(F)C(F)(F)C(F)(F)F.[K+]` [Perfluorohexane-1-sulphonic acid – potassium salt] yielded a concentration in liver [14] of 29500 ng/g, a concentration in kidney [15] of 39300 ng/g and a concentration in liver [16] of 1580 ng/g.

`CCC1(c2ccccc2)C(=O)NCNC1=O` [Primidone] gave a concentration in plasma [17] of 59300 ng/mL, a concentration in plasma [18] of 6000 ng/mL and a concentration in plasma [19] of 35300 ng/mL.

With `c1ccncc1` [Pyridine] the concentration in plasma ([20]; 0.5 h) was 18700 ng/mL, the concentration in plasma ([20]; 6 h) was 16200 ng/mL and the concentration in plasma [21] was 10100 ng/mL. The concentration in plasma [22] was 453 ng/mL, the concentration in plasma ([23]; 1 h) was 21400 ng/mL and the concentration in plasma ([23]; 8 h) was 15200 ng/mL. The concentration in plasma [24] was 1310 ng/mL and the concentration in plasma [25] was 3970 ng/mL.

`CC(C)[C@]12CC(=O)[C@H](C)[C@H]1C2` [alpha-Thujone] was tested, and the concentration in brain [26] was 435 ng/g, the concentration in plasma [27] was 2120 ng/mL and the concentration in brain [28] was 11.2 ng/g. It also gave a concentration in plasma [29] of 68.6 ng/mL, a concentration in plasma [30] of 408 ng/mL and a concentration in plasma [31] of 28.6 ng/mL.
